Test results published in ChEMBL document CHEMBL3351686, “Facile and diastereoselective synthesis of 3,2'-spiropyrrolidine-oxindoles derivatives, their molecular docking and antiproliferative activities” (2015).
Values after ≈ are worked out from the molar mass of the structure shown.

tested on: Staphylococcus epidermidis; experiment: Antibacterial activity against Staphylococcus epidermidis MTCC 3615 assessed as zone of inhibition at 1 mg/disc after 24 hrs by disc diffusion method; assay type: functional; details: not given

| SMILES | inhibition zone (IZ) [mm] |
| --- | --- |
| N#C[C@]1(C(=O)c2c[nH]c3ccccc23)C2CCCN2[C@]2(C(=O)N(Cc3ccccc3)c3ccccc32)[C@@H]1c1cn(-c2ccccc2)nc1-c1ccccc1 (some centres not stated) | 15 |

tested on: Salmonella typhimurium; experiment: Antibacterial activity against Salmonella typhimurium MTCC 1251 assessed as zone of inhibition at 1 mg/disc after 24 hrs by disc diffusion method; assay type: functional, Salmonella enterica subsp. enterica serovar Typhimurium; details: not given

| SMILES | inhibition zone (IZ) [mm] |
| --- | --- |
| N#C[C@]1(C(=O)c2c[nH]c3ccccc23)C2CCCN2[C@]2(C(=O)N(Cc3ccccc3)c3ccccc32)[C@@H]1c1cn(-c2ccccc2)nc1-c1ccccc1 (some centres not stated) | 14 |

tested on: Proteus vulgaris; experiment: Antibacterial activity against Proteus vulgaris MTCC 1771 assessed as zone of inhibition at 1 mg/disc after 24 hrs by disc diffusion method; assay type: functional; details: not given

| SMILES | inhibition zone (IZ) [mm] |
| --- | --- |
| N#C[C@]1(C(=O)c2c[nH]c3ccccc23)C2CCCN2[C@]2(C(=O)N(Cc3ccccc3)c3ccccc32)[C@@H]1c1cn(-c2ccccc2)nc1-c1ccccc1 (some centres not stated) | 10 |
| N#C[C@]1(C(=O)c2c[nH]c3ccccc23)C2CSCN2[C@]2(C(=O)Nc3ccc([N+](=O)[O-])cc32)[C@@H]1c1cn(-c2ccccc2)nc1-c1ccccc1 (some centres not stated) | 8 |

tested on: Staphylococcus aureus; experiment: Antibacterial activity against methicillin-resistant Staphylococcus aureus assessed as zone of inhibition at 1 mg/disc after 24 hrs by disc diffusion method; assay type: functional; details: not given

| SMILES | inhibition zone (IZ) [mm] |
| --- | --- |
| N#C[C@]1(C(=O)c2c[nH]c3ccccc23)C2CCCN2[C@]2(C(=O)N(Cc3ccccc3)c3ccccc32)[C@@H]1c1cn(-c2ccccc2)nc1-c1ccccc1 (some centres not stated) | 8 |

tested on: Proteus vulgaris; experiment: Antibacterial activity against Proteus vulgaris MTCC 1771 assessed as inhibition of visual growth after 24 hrs; assay type: functional; details: MTCC 1771, 24 h

| SMILES | MIC [µg/mL] |
| --- | --- |
| CN1C(=O)[C@]2(c3ccccc31)[C@H](c1cn(-c3ccccc3)nc1-c1ccccc1)[C@@](C#N)(C(=O)c1c[nH]c3ccccc13)C1CSCN12 (some centres not stated) | 500 (≈ 773 µM) |

tested on: Micrococcus luteus; experiment: Antibacterial activity against Micrococcus luteus MTCC 106 assessed as inhibition of visual growth after 24 hrs; assay type: functional; details: MTCC 106, 24 h

| SMILES | MIC [µg/mL] |
| --- | --- |
| CN1C(=O)[C@]2(c3ccccc31)[C@H](c1cn(-c3ccccc3)nc1-c1ccccc1)[C@@](C#N)(C(=O)c1c[nH]c3ccccc13)C1CSCN12 (some centres not stated) | 250 (≈ 387 µM) |

tested on: Staphylococcus aureus; experiment: Antibacterial activity against Staphylococcus aureus MTCC 96 assessed as zone of inhibition at 1 mg/disc after 24 hrs by disc diffusion method; assay type: functional; details: not given

| SMILES | inhibition zone (IZ) [mm] |
| --- | --- |
| N#C[C@]1(C(=O)c2c[nH]c3ccccc23)C2CCCN2[C@]2(C(=O)N(Cc3ccccc3)c3ccccc32)[C@@H]1c1cn(-c2ccccc2)nc1-c1ccccc1 (some centres not stated) | 13 |

tested on: Klebsiella aerogenes; experiment: Antibacterial activity against Enterobacter aerogenes MTCC 111 assessed as inhibition of visual growth after 24 hrs; assay type: functional; details: MTCC 111, 24 h

| SMILES | MIC [µg/mL] |
| --- | --- |
| CN1C(=O)[C@]2(c3ccccc31)[C@H](c1cn(-c3ccccc3)nc1-c1ccccc1)[C@@](C#N)(C(=O)c1c[nH]c3ccccc13)C1CSCN12 (some centres not stated) | 500 (≈ 773 µM) |

tested on: Staphylococcus epidermidis; experiment: Antibacterial activity against Staphylococcus epidermidis MTCC 3615 assessed as inhibition of visual growth after 24 hrs; assay type: functional; details: MTCC 3615, 24 h

| SMILES | MIC [µg/mL] |
| --- | --- |
| CN1C(=O)[C@]2(c3ccccc31)[C@H](c1cn(-c3ccccc3)nc1-c1ccccc1)[C@@](C#N)(C(=O)c1c[nH]c3ccccc13)C1CSCN12 (some centres not stated) | 125 (≈ 193 µM) |

tested on: Micrococcus luteus; experiment: Antibacterial activity against Micrococcus luteus MTCC 106 assessed as zone of inhibition at 1 mg/disc after 24 hrs by disc diffusion method; assay type: functional; details: not given

| SMILES | inhibition zone (IZ) [mm] |
| --- | --- |
| N#C[C@]1(C(=O)c2c[nH]c3ccccc23)C2CCCN2[C@]2(C(=O)N(Cc3ccccc3)c3ccccc32)[C@@H]1c1cn(-c2ccccc2)nc1-c1ccccc1 (some centres not stated) | 9 |

tested on: Staphylococcus aureus; experiment: Antibacterial activity against Staphylococcus aureus MTCC 96 assessed as inhibition of visual growth after 24 hrs; assay type: functional; details: MTCC 96, 24 h

| SMILES | MIC [µg/mL] |
| --- | --- |
| CN1C(=O)[C@]2(c3ccccc31)[C@H](c1cn(-c3ccccc3)nc1-c1ccccc1)[C@@](C#N)(C(=O)c1c[nH]c3ccccc13)C1CSCN12 (some centres not stated) | 500 (≈ 773 µM) |

tested on: Klebsiella pneumoniae; experiment: Antibacterial activity against Klebsiella pneumoniae MTCC 109 assessed as inhibition of visual growth after 24 hrs; assay type: functional; details: MTCC 109, 24 h

| SMILES | MIC [µg/mL] |
| --- | --- |
| CN1C(=O)[C@]2(c3ccccc31)[C@H](c1cn(-c3ccccc3)nc1-c1ccccc1)[C@@](C#N)(C(=O)c1c[nH]c3ccccc13)C1CSCN12 (some centres not stated) | 500 (≈ 773 µM) |

tested on: Klebsiella aerogenes; experiment: Antibacterial activity against Enterobacter aerogenes MTCC 111 assessed as zone of inhibition at 1 mg/disc after 24 hrs by disc diffusion method; assay type: functional; details: not given

| SMILES | inhibition zone (IZ) [mm] |
| --- | --- |
| N#C[C@]1(C(=O)c2c[nH]c3ccccc23)C2CCCN2[C@]2(C(=O)N(Cc3ccccc3)c3ccccc32)[C@@H]1c1cn(-c2ccccc2)nc1-c1ccccc1 (some centres not stated) | 8 |

tested on: Salmonella typhimurium; experiment: Antibacterial activity against Salmonella typhimurium MTCC 1251 assessed as inhibition of visual growth after 24 hrs; assay type: functional, Salmonella enterica subsp. enterica serovar Typhimurium; details: Salmonella enterica, MTCC 1251, 24 h

| SMILES | MIC [µg/mL] |
| --- | --- |
| CN1C(=O)[C@]2(c3ccccc31)[C@H](c1cn(-c3ccccc3)nc1-c1ccccc1)[C@@](C#N)(C(=O)c1c[nH]c3ccccc13)C1CSCN12 (some centres not stated) | 500 (≈ 773 µM) |

tested on: Candida albicans; experiment: Antifungal activity against Candida albicans MTCC 227 assessed as zone of inhibition at 1 mg/disc after 48 hrs by disc diffusion method; assay type: functional; details: not given

| SMILES | inhibition zone (IZ) [mm] |
| --- | --- |
| N#C[C@]1(C(=O)c2c[nH]c3ccccc23)C2CCCN2[C@]2(C(=O)N(Cc3ccccc3)c3ccccc32)[C@@H]1c1cn(-c2ccccc2)nc1-c1ccccc1 (some centres not stated) | 8 |

tested on: Klebsiella pneumoniae; experiment: Antibacterial activity against Klebsiella pneumoniae MTCC 109 assessed as zone of inhibition at 1 mg/disc after 24 hrs by disc diffusion method; assay type: functional; details: not given

| SMILES | inhibition zone (IZ) [mm] |
| --- | --- |
| N#C[C@]1(C(=O)c2c[nH]c3ccccc23)C2CCCN2[C@]2(C(=O)N(Cc3ccccc3)c3ccccc32)[C@@H]1c1cn(-c2ccccc2)nc1-c1ccccc1 (some centres not stated) | 11 |
